According to ChEMBL document CHEMBL5576047, “Synthesis of a new 2-prenylated quinoline as potential drug for metabolic syndrome with pan-PPAR activity and anti-inflammatory effects” (Bioorg Med Chem Lett, 2024):

How the values were obtained:
Assay type in all cases: cell-based; call rule not given here
[1] = biological target: T1, Peroxisome proliferator-activated receptor alpha (Homo sapiens, UniProt Q07869); assay: Agonist activity at GAL4-tagged human PPARalpha transfected in African green monkey COS7 cells assessed as transcriptional activation by measuring effective concentration incubated for 24 hrs by luciferase assay
T1 sequence (Q07869 whole entry): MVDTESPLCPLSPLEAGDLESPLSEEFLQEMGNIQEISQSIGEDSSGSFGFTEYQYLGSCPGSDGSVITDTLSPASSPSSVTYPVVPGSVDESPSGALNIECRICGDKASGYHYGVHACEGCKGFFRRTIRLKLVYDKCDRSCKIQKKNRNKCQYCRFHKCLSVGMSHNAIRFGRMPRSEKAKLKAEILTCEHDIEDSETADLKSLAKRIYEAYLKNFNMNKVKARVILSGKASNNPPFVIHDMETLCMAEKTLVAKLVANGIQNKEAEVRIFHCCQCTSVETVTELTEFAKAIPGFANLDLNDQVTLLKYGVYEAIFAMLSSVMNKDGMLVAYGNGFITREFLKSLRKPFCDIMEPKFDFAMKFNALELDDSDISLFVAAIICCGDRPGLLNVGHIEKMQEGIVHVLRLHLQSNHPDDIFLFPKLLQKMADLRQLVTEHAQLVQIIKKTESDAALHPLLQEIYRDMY

[2] = biological target: T2, Peroxisome proliferator-activated receptor gamma (Homo sapiens, UniProt P37231); assay: Agonist activity at GAL4-tagged human PPARgamma transfected in African green monkey COS7 cells assessed as transcriptional activation by measuring effective concentration incubated for 24 hrs by luciferase assay
T2 sequence (P37231 whole entry): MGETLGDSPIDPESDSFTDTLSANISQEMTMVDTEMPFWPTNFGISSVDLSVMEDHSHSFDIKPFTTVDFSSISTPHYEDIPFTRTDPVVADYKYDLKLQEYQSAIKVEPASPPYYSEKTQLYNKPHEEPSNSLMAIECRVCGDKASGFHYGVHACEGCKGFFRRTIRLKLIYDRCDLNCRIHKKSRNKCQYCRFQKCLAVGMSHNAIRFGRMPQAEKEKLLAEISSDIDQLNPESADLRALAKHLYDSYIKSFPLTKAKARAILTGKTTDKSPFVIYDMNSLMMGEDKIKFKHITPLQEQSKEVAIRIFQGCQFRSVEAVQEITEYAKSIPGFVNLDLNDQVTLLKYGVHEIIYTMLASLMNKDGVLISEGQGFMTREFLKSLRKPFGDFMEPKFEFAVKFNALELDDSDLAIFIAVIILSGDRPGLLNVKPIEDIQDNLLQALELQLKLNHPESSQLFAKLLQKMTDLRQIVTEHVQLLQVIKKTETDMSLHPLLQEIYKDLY

[3] = biological target: T3, Peroxisome proliferator-activated receptor delta (Homo sapiens, UniProt Q03181); assay: Agonist activity at GAL4-tagged human PPARbeta/delta transfected in African green monkey COS7 cells assessed as transcriptional activation by measuring effective concentration incubated for 24 hrs by luciferase assay
T3 sequence (Q03181 whole entry): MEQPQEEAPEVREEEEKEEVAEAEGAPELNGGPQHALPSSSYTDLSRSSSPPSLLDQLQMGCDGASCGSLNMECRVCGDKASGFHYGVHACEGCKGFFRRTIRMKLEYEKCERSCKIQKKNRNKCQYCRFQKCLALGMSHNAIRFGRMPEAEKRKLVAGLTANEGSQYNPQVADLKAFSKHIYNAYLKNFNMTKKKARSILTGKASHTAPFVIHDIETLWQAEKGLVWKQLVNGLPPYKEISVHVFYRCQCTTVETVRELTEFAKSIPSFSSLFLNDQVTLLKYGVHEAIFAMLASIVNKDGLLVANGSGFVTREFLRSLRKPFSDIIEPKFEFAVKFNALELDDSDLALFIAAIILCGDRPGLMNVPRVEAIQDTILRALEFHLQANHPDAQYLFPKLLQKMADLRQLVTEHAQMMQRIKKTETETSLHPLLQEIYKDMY

| Compound | EC50 ([1]; cos7) | EC50 ([1]; read-out: EC50) | EC50 ([2]; cos7) | also measured |
| --- | --- | --- | --- | --- |
| CN(CCOc1ccc(CC2SC(=O)NC2=O)cc1)c1ccccn1 (centres undefined) [ROSIGLITAZONE] | Not Active | – | – | – |
| CCOC(=O)CC/C(C)=C/CCC1(C)CCc2cc(OCc3ccccc3)ccc2O1 (centres undefined) | – | 2950 nM | – | EC50 ([2]; read-out: EC50): 1590 nM |
| Cc1cccc(Nc2cc(Cl)nc(SCC(=O)O)n2)c1C [PIRINIXIC ACID] | – | – | Not Active | – |
| CCOC(=O)CC/C(C)=C/CCc1ccc2cc(OCc3ccccc3)ccc2n1 | – | 3200 nM | – | EC50 [3]: 1510 nM |
| Cc1cc(SCc2sc(-c3ccc(C(F)(F)F)cc3)nc2C)ccc1OCC(=O)O [GW501516] | Not Active | – | – | – |
| CCOC(=O)/C(=C/CCC1(C)CCc2cc(OCc3ccccc3)ccc2O1)OCC(F)(F)F (centres undefined) | Not Active | – | Not Active | – |
